Data taken from patent publication US20150218172A1, “Pyrrolo[2,3-D]Pyrimidine Tropomyosin-Related Kinase Inhibitors” (PFIZER LIMITED, priority 2012, published 2015).

Biological target: T1, TrkA (Homo sapiens, UniProt P04629)
T1 construct: aa 441-796; His; purchased Invitrogen PV3144
Assay: Isolated TRK enzyme assay (HTRF KinEASE-TK kit), PV3144 TrkA enzyme assay
Format: biochemical
Details: PV3144 TrkA enzyme assay, recombinant His-tagged cytoplasmic domain aa 441-796, 4 nM enzyme, 40 uM ATP; arithmetic mean where more than one reading; read-out: Trka enzyme (IC50)
Experimental: Isolated TRK Enzyme assays use the HTRF KinEASE-TK kit (Cisbio Cat#62TK0PEJ) with recombinant His-tagged cytoplasmic domains of each TRK receptor sourced from Invitrogen (see table below). This activity-assay measures the phosphorylation of tyrosine residues within a substrate from the HTRF kit which has been validated by Cisbio for a variety of tyrosine kinases including the TRK receptors.
0.5 mM stock solutions of test compounds are prepared and serially diluted in 100% DMSO. A standard curve using the compound of Example 135 disclosed in WO2005/116035 of 150 uM is also prepared on each test plate. High percentage effect (HPE) is defined by 150 uM (using the compound of Example 135 as disclosed in WO2005/116035) and 0% effect (ZPE) is defined by 100% DMSO. Greiner low volume black plates containing 0.2 ul of serially diluted compound, standard and HPE/ZPE are created using the Bravo nanolitre dispenser.
1X enzyme buffer is prepared from 5X Enzymatic Buffer from the Cisbio KinEASE TK kit using MilliQ water. The buffer is then supplemented with 10 mM MgCl and 2 mM DTT (both from Sigma). In the case of TRKB, the buffer is also supplemented with 125 nM Supplement Enzymatic Buffer (SEB) from the Cisbio kit.
2X FAC of enzyme and 2X FAC ATP diluted in 1X complete enzyme buffer is incubated at room temperature for 20 minutes to preactivate the enzyme. Following this preactivation step, 5 ul/well of enzyme+ATP mix is added using a Multidrop Micro to the assay plate, spotted with 0.2 ul 100% DMSO compound. This is left for 20 mins at room temperature before adding 5 ul of 2 uM TK-substrate-Biotin (from the Cisbio kit) diluted in 1X enzyme buffer (1 uM FAC) using the Multidrop Micro. The reaction is incubated at room temperature for the optimized assay reaction time (see table). The reaction is stopped by adding 10 ul/well HTRF Detection Buffer containing 0.25 uM Streptavidin-XL665 (0.125 uM FAC) and 1:200 TK Antibody-Cryptate using a Multidrop.
After the Detection Reagent addition, plates are covered and incubated at room temperature for 60 minutes. HTRF signal is read using an Envision reader, measured as a ratio of emissions at two different wavelengths, 620 nm and 665 nm. […] Test compound data are expressed as percentage inhibition defined by HPE and ZPE values for each plate. Percentage inhibition in the presence of test compound is plotted against compound concentration on a log scale to determine an IC50 from the resultant sigmoid curve.
Below are TrkA IC50 data generated using the PV3144 TrkA enzyme assay. Where more than one reading was taken, the arithmetic mean is presented.

T1 sequence (P04629 441-796): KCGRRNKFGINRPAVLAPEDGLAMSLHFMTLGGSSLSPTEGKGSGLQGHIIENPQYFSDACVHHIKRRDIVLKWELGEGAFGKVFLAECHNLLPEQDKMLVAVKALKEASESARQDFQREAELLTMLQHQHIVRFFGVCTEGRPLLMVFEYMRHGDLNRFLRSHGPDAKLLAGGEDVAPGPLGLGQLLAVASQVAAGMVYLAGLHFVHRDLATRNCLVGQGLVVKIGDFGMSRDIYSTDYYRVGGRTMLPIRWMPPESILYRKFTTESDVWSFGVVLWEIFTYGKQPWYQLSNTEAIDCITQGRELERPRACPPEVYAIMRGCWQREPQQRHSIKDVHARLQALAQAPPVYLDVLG

Compound: CC(CO)(CO)n1cc(C(=O)c2cc(NC(=O)Cn3ccc(C(F)(F)F)n3)ccn2)c2cncnc21 [Example 105, N-(2-{[7-(1,3-dihydroxy-2-methylpropan-2-yl)-7H-pyrrolo[2,3-d]pyrimidin-5-yl]carbonyl}pyridin-4-yl)-2-[3-(trifluoromethyl)-1H-pyrazol-1-yl]acetamide]
- IC50: 72.7 nM

Compound: O=C(Cc1ccc(C(F)(F)F)cc1)Nc1cc(C(=O)c2cn(CCO)c3ncncc23)ccn1 [Example 141, N-(4-{[7-(2-hydroxyethyl)-7H-pyrrolo[2,3-d]pyrimidin-5-yl]carbonyl}pyridin-2-yl)-2-[4-(trifluoromethyl)phenyl]acetamide]
- IC50: 16.4 nM

Compound: Cc1cc(C(=O)c2cn(C(C)C)c3ncncc23)cc(NC(=O)Cc2ccc(C#N)cc2)n1 [Example 76, 2-(4-cyanophenyl)-N-(6-methyl-4-{[7-(propan-2-yl)-7H-pyrrolo[2,3-d]pyrimidin-5-yl]carbonyl}pyridin-2-yl)acetamide]
- IC50: 315 nM

Compound: C[C@@H](CO)n1cc(C(=O)c2cc(NC(=O)Cn3cc(C4CC4)nn3)ccn2)c2cncnc21 [Example 30, 2-(4-cyclopropyl-1H-1,2,3-triazol-1-yl)-N-[2-({7-[(2S)-1-hydroxypropan-2-yl]-7H-pyrrolo[2,3-d]pyrimidin-5-yl}carbonyl)pyridin-4-yl]acetamide]
- IC50: 89.7 nM

Compound: C[C@@H](CO)n1cc(C(=O)c2cc(NC(=O)Cn3cc(C(F)(F)F)nn3)ccn2)c2cncnc21 [Example 31, N-[2-({7-[(2S)-1-hydroxypropan-2-yl]-7H-pyrrolo[2,3-d]pyrimidin-5-yl}carbonyl)pyridin-4-yl]-2-[4-(trifluoromethyl)-1H-1,2,3-triazol-1-yl]acetamide]
- IC50: 78.1 nM

Compound: CC(CO)n1cc(C(=O)c2ccnc(NC(=O)Cc3ccc(C#N)cc3)c2)c2cncnc21 (single isomer, unassigned) [Example 34, 2-(4-cyanophenyl)-N-(4-{[7-(1-hydroxypropan-2-yl)-7H-pyrrolo[2,3-d]pyrimidin-5-yl]carbonyl}pyridin-2-yl)acetamide]
- IC50: 332 nM

Compound: Cc1cc(C(F)(F)F)nn1CC(=O)Nc1cc(C(=O)c2cn(CCO)c3ncncc23)ccn1 [Example 132, N-(4-{[7-(2-hydroxyethyl)-7H-pyrrolo[2,3-d]pyrimidin-5-yl]carbonyl}pyridin-2-yl)-2-[5-methyl-3-(trifluoromethyl)-1H-pyrazol-1-yl]acetamide]
- IC50: 48.2 nM

Compound: CC(C)c1cn(CC(=O)Nc2cc(C(=O)c3cn(CCO)c4ncncc34)ccn2)nn1 [Example 129, N-(4-{[7-(2-hydroxyethyl)-7H-pyrrolo[2,3-d]pyrimidin-5-yl]carbonyl}pyridin-2-yl)-2-[4-(propan-2-yl)-1H-1,2,3-triazol-1-yl]acetamide]
- IC50: 201 nM

Compound: CC(C)n1cc(C(=O)c2ccnc(NC(=O)Cc3ccc(F)cc3F)c2)c2cncnc21 [Example 118, 2-(2,4-difluorophenyl)-N-(4-{[7-(propan-2-yl)-7H-pyrrolo[2,3-d]pyrimidin-5-yl]carbonyl}pyridin-2-yl)acetamide]
- IC50: 8.82 nM

Compound: Cc1cc(C)n(CC(=O)Nc2cc(C(=O)c3cn(CCO)c4ncncc34)ccn2)n1 [Example 139, 2-(3,5-dimethyl-1H-pyrazol-1-yl)-N-(4-{[7-(2-hydroxyethyl)-7H-pyrrolo[2,3-d]pyrimidin-5-yl]carbonyl}pyridin-2-yl)acetamide]
- IC50: 760 nM

Compound: CC(C)(C)n1cc(C(=O)c2cc(NC(=O)Cn3ccc(C(F)(F)F)n3)ccn2)c2cncnc21 [Example 41, N-{2-[(7-tert-butyl-7H-pyrrolo[2,3-d]pyrimidin-5-yl)carbonyl]pyridin-4-yl}-2-[3-(trifluoromethyl)-1H-pyrazol-1-yl]acetamide]
- IC50: 10.7 nM

Compound: O=C(Cc1ccc(F)cc1F)Nc1cc(C(=O)c2cn(CCO)c3ncncc23)ccn1 [Example 140, 2-(2,4-difluorophenyl)-N-(4-{[7-(2-hydroxyethyl)-7H-pyrrolo[2,3-d]pyrimidin-5-yl]carbonyl}pyridin-2-yl)acetamide]
- IC50: 223 nM

Compound: N-(2-{[7-(propan-2-yl)-7H-pyrrolo[2,3-d]pyrimidin-5-yl]carbonyl}pyridin-4-yl)-2-[4-(trifluoromethyl)-1H-1,2,3-triazol-1-yl]acetamide [Example 80]
- IC50: 150 nM

Compound: CC(C)(CO)n1cc(C(=O)c2cc(NC(=O)Cn3cc(C(F)(F)F)nn3)ccn2)c2cncnc21 [Example 54, N-(2-{[7-(1-hydroxy-2-methylpropan-2-yl)-7H-pyrrolo[2,3-d]pyrimidin-5-yl]carbonyl}pyridin-4-yl)-2-[4-(trifluoromethyl)-1H-1,2,3-triazol-1-yl]acetamide]
- IC50: 46.2 nM

Compound: O=C(Cc1ccc(C(F)(F)F)cc1)Nc1ccnc(C(=O)c2cn(C(CO)CO)c3ncncc23)c1 [Example 93, N-(2-{[7-(1,3-dihydroxypropan-2-yl)-7H-pyrrolo[2,3-d]pyrimidin-5-yl]carbonyl}pyridin-4-yl)-2-[4-(trifluoromethyl)phenyl]acetamide]
- IC50: 164 nM

Compound: O=C(Cc1ccccc1OC(F)(F)F)Nc1cc(C(=O)c2cn(CCO)c3ncncc23)ccn1 [Example 134, N-(4-{[7-(2-hydroxyethyl)-7H-pyrrolo[2,3-d]pyrimidin-5-yl]carbonyl}pyridin-2-yl)-2-[2-(trifluoromethoxy)phenyl]acetamide]
- IC50: 583 nM

Compound: CC(C)n1cc(C(=O)c2cc(NC(=O)Cn3cc(C4CC4)nn3)ccn2)c2cnc(N)nc21 [Example 91, N-(2-{[2-amino-7-(propan-2-yl)-7H-pyrrolo[2,3-d]pyrimidin-5-yl]carbonyl}pyridin-4-yl)-2-(4-cyclopropyl-1H-1,2,3-triazol-1-yl)acetamide]
- IC50: 44.5 nM

Compound: CC(C)c1ccnn1CC(=O)Nc1cc(C(=O)c2cn(C(C)C)c3ncncc23)ccn1 [Example 148, 2-[5-(propan-2-yl)-1H-pyrazol-1-yl]-N-(4-{[7-(propan-2-yl)-7H-pyrrolo[2,3-d]pyrimidin-5-yl]carbonyl}pyridin-2-yl)acetamide]
- IC50: 185 nM

Compound: Cc1cc(C(F)(F)F)nn1CC(=O)Nc1cc(C(=O)c2cn(C(C)C)c3nc(O)ncc23)ccn1 [Example 125, N-(4-{[2-hydroxy-7-(propan-2-yl)-7H-pyrrolo[2,3-d]pyrimidin-5-yl]carbonyl}pyridin-2-yl)-2-[5-methyl-3-(trifluoromethyl)-1H-pyrazol-1-yl]acetamide]
- IC50: 250 nM

Compound: Cc1cc(C(F)(F)F)nn1CC(=O)Nc1cc(C(=O)c2cn(C(C)C)c3ncncc23)ccn1 [Example 147, 2-[5-methyl-3-(trifluoromethyl)-1H-pyrazol-1-yl]-N-(4-{[7-(propan-2-yl)-7H-pyrrolo[2,3-d]pyrimidin-5-yl]carbonyl}pyridin-2-yl)acetamide]
- IC50: 16.2 nM

Compound: CC(C)n1cc(C(=O)c2ccnc(NC(=O)Cc3ccccc3Cl)c2)c2cncnc21 [Example 159, 2-(2-chlorophenyl)-N-(4-{[7-(propan-2-yl)-7H-pyrrolo[2,3-d]pyrimidin-5-yl]carbonyl}pyridin-2-yl)acetamide]
- IC50: 53.6 nM

Compound: CC(C)n1cc(C(=O)c2cc(NC(=O)Cc3ccc(C#N)cn3)ccn2)c2cnc(N)nc21 [Example 63, N-(2-{[2-amino-7-(propan-2-yl)-7H-pyrrolo[2,3-d]pyrimidin-5-yl]carbonyl}pyridin-4-yl)-2-(5-cyanopyridin-2-yl)acetamide]
- IC50: 136 nM

Compound: CC(C)n1cc(C(=O)c2ccnc(NC(=O)Cc3ccc(Cl)cc3)c2)c2cnc(N)nc21 [Example 44, N-[4-(2-Amino-7-isopropyl-7H-pyrrolo[2,3-d]pyrimidine-5-carbonyl)-pyridin-2-yl]-2-(4-chloro-phenyl)-acetamide]
- IC50: 10.2 nM

Compound: CC(C)(CO)n1cc(C(=O)c2cc(NC(=O)Cc3ccc(Cl)cn3)ccn2)c2cnc(N)nc21 [Example 52, N-(2-{[2-amino-7-(1-hydroxy-2-methylpropan-2-yl)-7H-pyrrolo[2,3-d]pyrimidin-5-yl]carbonyl}pyridin-4-yl)-2-(5-chloropyridin-2-yl)acetamide]
- IC50: 73.1 nM

Compound: O=C(Cc1ccc(Cl)c(Cl)c1)Nc1ccnc(C(=O)c2cn(C(CO)CO)c3ncncc23)c1 [Example 99, 2-(3,4-dichlorophenyl)-N-(2-{[7-(1,3-dihydroxypropan-2-yl)-7H-pyrrolo[2,3-d]pyrimidin-5-yl]carbonyl}pyridin-4-yl)acetamide]
- IC50: 430 nM

Compound: CC(C)n1cc(C(=O)c2ccnc(NC(=O)Cc3ccc(Cl)cc3)c2)c2cncnc21 [Example 67, 2-(4-chlorophenyl)-N-(4-{[7-(propan-2-yl)-7H-pyrrolo[2,3-d]pyrimidin-5-yl]carbonyl}pyridin-2-yl)acetamide]
- IC50: 28.9 nM
